Reference: patent US5744476A, “Dopamine D1 agonists for the treatment of dementia” (Interneuron Pharmaceuticals, Inc., priority 1994, dated 1998)
Entries after “also recorded” stand apart in the source; their conditions may differ. Read-outs that look alike come from different tables or passages of the source.

Key:
[1] = test system: scopolamine-induced deficits (rats); test: Passive avoidance in rats, scopolamine-induced amnesia (step-through latency); settings: scopolamine 3.0 mg/kg
adenylate cyclase = settings: cited from earlier work
monkeys = settings: cited from earlier work
6-OHDA-lesioned rats = test: Rotational behavior in 6-OHDA-lesioned rats (rodent model of PD); type: in vivo, rat; settings: 10 mg/kg
Excerpt: (§1) The test protocol followed is disclosed in Ungerstedt, Acta Physiol. Scand. 82 Supp. 367, p. 49-68 (1971). […] This activity may reside in one or more optical isomers of such a metabolite.

striatal acetylcholine = test: In vivo microdialysis, striatal ACh release; design: species or system Male Sprague-Dawley rats; settings: for dialysate concentrations of striatal ACh / duration of increase of dialysate concentrations of striatal ACh: i.p.; for duration of increase of dialysate concentrations of striatal ACh: post-injection; for stimulatory effect of DHX on striatal ACh release (blockade): low dose in combination with DHX
Excerpt: (§2) The in vivo microdialysis technique is a method for evaluating the effects of drugs on brain neurotransmitter systems by monitoring the extracellular concentration of neurotransmitters and metabolites in awake freely-moving animals. Probes are implanted directly into the brain of rats and serve to continuously sample the extracellular fluid in the vicinity of the probe. Samples containing the dialyzed extracellular fluid are collected at the outlet of the perfusion system and analyzed for content of brain neurotransmitters and metabolites by high-performance liquid chromatography coupled with electrochemical detection (HPLC-EC).
Male Sprague-Dawley rats weighing 250-350 g were group housed (n=3 per cage) in a temperature-controlled room (23±2° C.) on a 14/10 hr light cycle with free access to food and water. After the surgical procedure, animals were placed in individual cages.
The surgical procedure involved the implantation and fixation of a probe holder/guide cannula to the skull of anesthetized rats. The guide cannula was the attachment site for the rigid concentric microdialysis probes which were implanted into the awake, fully-recovered rat at the onset of the experiment. […] For placement of the guide cannulae, rats were anesthetized with ketamine:xylazine (87:13 mg/kg), shaved and placed in a stereotaxic frame (Narashige Instruments). An incision was made to expose the skull and a small hole was drilled to expose the dura mater for placement of the guide. Guide cannulae were implanted in the striatum according to the following stereotaxic coordinates with reference to bregma: AP -+1.5 mm, L -+2.6 mm and V to dura -2.5 mm (Paxinos and Watson, The rat brain in stereotaxic coordinates, 2nd. ed., Academic Press, London, 1986). The microdialysis probe extended 3.0 mm beyond the tip of the guide cannula which yielded a final ventral placement of 5.5 mm below the dura. The coordinates for placement of the guide into frontal cortex were: AP -+3.0 mm, L -+2.8 mm and V to dura 0 mm, with the probe extending 3.0 mm below the dura. Guide cannulae were fixed to the skull with dental acrylic and anchor screws and a dummy cannula was inserted into each guide for the recovery period. Animals were returned to their home cage and allowed to recover from surgery for 24-48 hrs.
For each experiment, the dialysis probe was connected to a microinfusion pump (CMA-100; Bioanalytical Systems (BAS); W. Lafayette, Ind.) equipped with a liquid switch (CMA-110; BAS) via low dead volume fused-silica tubing (I.D.=75 um; O.D.=150 um). At the time of experiment, the dummy cannula was removed and the probe was inserted through the guide into the conscious animal under light restraint.
The probe was perfused continuously with artificial CSF (composition in Mm: 121 NaCl, 3.5 KCl, 1.2 CaCl2, 1.2 MgCl2, 1.0 NaH2 PO4, 25 NaHCO3, and 0.001 neostigmine) at a flow rate of 1.5 ul/min. Dialysate samples were collected every 20 min (total sample volume=30 μl). A 20 ul aliquot was analyzed immediately for acetylcholine (ACh) content by high-performance liquid chromatography with electrochemical detection (HPLC-EC) (see below for details). A baseline period of at least one hour was allowed prior to invoking any experimental manipulations. […] Sample collection proceeded for a minimum of 3 hrs following drug administration. Upon completion of the experiment, animals were sacrificed by decapitation and brains examined grossly to verify probe placement.
(§3) DHX and SKF 81297, another D1 agonist (Andersen et al., Eur J Pharmacol 188:335, 1990), were administered ip after a stable baseline of ACh release was established in each animal. […] The effects of DHX on ACh release were evaluated in two brain regions associated with cognition (striatum, frontal cortex).

[2] = test system: acetylcholine release in the frontal cortex; test: In vivo microdialysis, frontal cortex ACh release; design: species or system Male Sprague-Dawley rats
Excerpt: as §2, with “(HPLC-EC). […]” for “(HPLC-EC).”
The probe was perfused continuously with artificial CSF (composition in Mm: 121 NaCl, 3.5 KCl, 1.2 CaCl2, 1.2 MgCl2, 1.0 NaH2 PO4, 25 NaHCO3, and 0.001 neostigmine) at a flow rate of 1.5 ul/min. […] A 20 ul aliquot was analyzed immediately for acetylcholine (ACh) content by high-performance liquid chromatography with electrochemical detection (HPLC-EC) (see below for details). […]
as §3, with “cortex). […]” for “cortex).”

[3] = test system: MPTP-induced parkinsonism model in primates; settings: cited from earlier work
[4] = Concentration of DHX in brain and plasma over time; type: in vivo, rat; settings: 10 mg/kg
Excerpt: as §1

dopamine D1 receptor = settings: cited from earlier work
cortical ACh release = settings: in vivo; cited from earlier work
animals = settings: cited from earlier work; for memory-improving effect of nigrostriatal self-stimulation or of d-amphetamine (blockade): in vivo
striatal ACh output = settings: cited from earlier work
[5] = test system: behavioral effects previously associated with D2 antagonists; settings: in vivo; cited from earlier work
[6] = test system: CADs due to lesions of the medial projection of the basal forebrain to the cortex; settings: cited from earlier work
[7] = test system: choice accuracy deficits (CADS) due to scopolamine; settings: radial arm maze; cited from earlier work
rodents = settings: cited from earlier work; for retention of win-stay and win-shift tasks: Packard and White, 1989
PD patients = settings: clinical; cited from earlier work

Oc1cc2c(cc1O)[C@@H]1c3ccccc3CN[C@H]1CC2 (relative stereo) [DHX, trans-10,11-dihydroxy-5,6,6a,7,8,12b-hexahydrobenzo[a]phenanthridine]
step-through latency ([1]; DHX 0.1 mg/kg): increased step-through latency, however, these increases were not statistically-significant
step-through latency (reversal of scopolamine-induced deficits) ([1]; DHX 0.3 mg/kg, 10 min prior to training): significantly improve scopolamine-induced deficits; also recorded: significantly improved scopolamine-induced deficits in step-through latency
step-through latency ([1]; DHX 1.0 mg/kg): increased step-through latency, however, these increases were not statistically-significant
potency in the stimulation of adenylate cyclase versus dopamine (adenylate cyclase; versus dopamine): approximately 70 times more potent
efficacy in the stimulation of adenylate cyclase versus dopamine (adenylate cyclase; versus dopamine, in words): as efficacious
spatial working memory (monkeys; young, intact monkeys): produced improvements in young, intact monkeys
biological activity in a rodent model of PD (rotational behavior), persistence (6-OHDA-lesioned rats): persists long after the levels of DHX in the brain and plasma have diminished
dialysate concentrations of striatal ACh (striatal acetylcholine; 3.0 mg/kg): increase in dialysate concentration of striatal acetylcholine; also recorded: increase dialysate concentrations of striatal ACh
duration of increase of dialysate concentrations of striatal ACh (striatal acetylcholine; 3.0 mg/kg): at least 180 min
dialysate concentrations of striatal ACh (striatal acetylcholine; 10 mg/kg): increase in dialysate concentration of striatal acetylcholine; also recorded: increase dialysate concentrations of striatal ACh
duration of increase of dialysate concentrations of striatal ACh (striatal acetylcholine; 10 mg/kg): at least 180 min
striatal ACh release (striatal acetylcholine; 17.5 mg/kg): appears to be less than that evoked by lower doses
ACh release in the frontal cortex ([2]; injection of DHX): increase in acetylcholine release in the frontal cortex; also recorded: increased ACh release in the frontal cortex
eye blink rates ([3]; 0.3 to 0.93 mg/kg, im): increasing eye blink rates
parkinsonian signs (tremor, motor freezing, abnormal posture, rigidity, bradykinesia) ([3]; 0.3 to 0.93 mg/kg, im): dramatically attenuated parkinsonian signs
activity in the MPTP-induced parkinsonism model ([3]; primates): potent activity in the MPTP-induced parkinsonism model in primates
levels of DHX in the brain and plasma [4]: diminished
affinity for D1 receptor (dopamine D1 receptor; D1): nanomolar affinity
selectivity for the D1 over the D2 receptor (dopamine D1 receptor): 12- to 60 fold

CN1Cc2ccccc2C2c3cccc4[nH]cc(c34)CC21 (single isomer, unassigned) [CY 208-243]
cortical ACh release (cortical ACh release): significantly increased cortical ACh release

NCCc1cc(O)c(O)cc1O [6-OHDA, 6-hydroxydopamine]
learning tasks after lesion of the nigrostriatal tract (animals; avoidance conditioning, Morris water maze): impair a variety of learning tasks
memory-improving effect of nigrostriatal self-stimulation or of d-amphetamine (blockade) (animals): blocked

Oc1cc2c(cc1O)[C@@H](c1ccccc1)CNCC2 [(+)-SKF 38393]
increase of striatal ACh output (striatal ACh output; systemic administration): 75%

CCCN1CCO[C@@H]2c3cc(O)ccc3CC[C@H]21 [PHNO]
cortical ACh release (cortical ACh release): no effect

CN1CCc2cc(Cl)c(O)cc2[C@@H](c2ccccc2)C1 [SCH23390]
behavioral effects [5]: mimic some of the behavioral effects previously associated with D2 antagonists
choice accuracy deficits due to lesions [6]: reversed CADs due to lesions of the medial projection of the basal forebrain to the cortex
stimulatory effect of DHX on striatal ACh release (blockade) (striatal acetylcholine): completely block the stimulatory effect of DHX on striatal ACh release
stimulatory effect of DHX on striatal ACh release (blockade) (striatal acetylcholine; listed as SCH 23390): completely block the stimulatory effect of administering DHX on striatal acetylcholine release
effect of D1 agonist on striatal ACh output (blockade) (striatal ACh output; 0.3 mg/kg): blocked
stimulatory effect of DHX on ACh release in the frontal cortex (blockade) ([2]; low dose in combination with DHX, listed as SCH 23390): completely block the stimulatory effect of administering DHX on acetylcholine release in the frontal cortex; also recorded: sensitive to antagonism by SCH 23390
D1 agonist-induced increase in cortical ACh release (blockade) (cortical ACh release): blocked selectively

Oc1cc2c(cc1O)C(c1ccccc1)CNCC2 (centres unmarked) [SKF38393]
efficacy in stimulating adenylate cyclase relative to dopamine (adenylate cyclase; as efficacious as dopamine): 30-50%
spatial working memory (monkeys; aged and reserpine-treated monkeys): improved spatial working memory in aged and reserpine-treated monkeys
choice accuracy deficits due to scopolamine [7]: alleviated choice accuracy deficits (CADS) due to scopolamine
retention of win-stay and win-shift tasks (rodents): but not SKF38393, improved retention of the tasks
selectivity for the D1 over the D2 receptor (dopamine D1 receptor): greater than 10 fold

Oc1cc2c(c(Cl)c1O)CCNCC2c1ccccc1 (centres unmarked) [SKF 81297]
dialysate concentrations of striatal ACh (striatal acetylcholine; 3.0 mg/kg): increase in dialysate concentration of striatal acetylcholine; also recorded: elevated striatal ACh release

CN1[C@@H]2C[C@@H](OC(=O)[C@H](CO)c3ccccc3)C[C@H]1[C@@H]1O[C@@H]12 [Scopolamine]
acquisition of the passive avoidance task (deficit) ([1]; ip, 30 min prior to training): severe deficit in the acquisition of the passive avoidance task

CC(C)C[C@H]1C(=O)N2CCC[C@H]2[C@]2(O)O[C@](NC(=O)[C@@H]3C=C4c5cccc6[nH]c(Br)c(c56)C[C@H]4N(C)C3)(C(C)C)C(=O)N12 [bromocriptine]
efficacy in the treatment of PD (PD patients): either limited efficacy relative to levodopa or limited long-term efficacy

C[C@H](N)Cc1ccccc1 [d-amphetamine]
memory improvement (animals; indirect dopamine agonist): memory-improving effects
retention of win-stay and win-shift tasks (rodents): improved retention of the tasks
win-stay acquisition (rodents; post-training intracaudate injection): improved win-stay acquisition

N[C@@H](Cc1ccc(O)c(O)c1)C(=O)O [levodopa]
efficacy in the treatment of PD (PD patients): allowed PD patients to reach normal life expectancies

CCCN1C[C@H](CSC)C[C@@H]2c3cccc4[nH]cc(c34)C[C@H]21 [pergolide]
efficacy in the treatment of PD (PD patients): either limited efficacy relative to levodopa or limited long-term efficacy

O=c1[nH]c2ccccc2n1C1CCN(CCCC(c2ccc(F)cc2)c2ccc(F)cc2)CC1 [pimozide]
memory-improving effect of nigrostriatal self-stimulation or of d-amphetamine (blockade) (animals): blocked

CCCN1CCC[C@@H]2Cc3n[nH]cc3C[C@H]21 [quinpirole]
striatal ACh release (striatal acetylcholine; 2.0 mg/kg, data not shown): decreases striatal ACh release

CCN1CCC[C@H]1CNC(=O)c1c(O)c(Cl)cc(Cl)c1OC [raclopride]
effect of D1 agonist on striatal ACh output (potentiation) (striatal ACh output; administered 60 min after SKF 38393): potentiated
